Measurements: US20240190854A1, “PYRIMIDINE OR PYRIDINE DERIVATIVES USEFUL AS HCN2 MODULATORS” (King's College London, priority 2021, published 2024)
Where a name gives a salt, the structure may show the parent alone.

Assays:
HCN2 = HCN2 (Homo sapiens (Human), UniProt Q9UL51); test: HCN2 current assay using PatchXpress 7000A; format: cell-based; settings: PatchXpress protocol; read-out: PX HCN2 IC50
In short: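 Automated patch clamp (PatchXpress 7000A) at about 22° C. HCN current taken as leak-subtracted peak inward current at the end of a step to −110 mV, with a return to −30 mV for 8 seconds. Cumulative concentrations applied 7 minutes each; amplitude normalised to control.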

HCN1 = HCN1 (Homo sapiens (Human), UniProt O60741); test: HCN1 current assay using PatchXpress 7000A; format: cell-based; settings: PatchXpress protocol; read-out: PX HCN1 IC50
Method: Example 126A, Using PatchXpress 7000A
Solutions for recording HCN currents were:
The membrane voltage was then stepped back to −30 mV for a further 8 seconds.
The peak inward current measured at the end of the pulse to −110 mV (HCN1 and HCN2) or −130 mV (HCN4) was measured and any leak current subtracted to calculate the HCN current. The HCN current amplitude was measured after each control or compound addition and normalized to the control amplitude (Control A).
All experiments were performed at room temperature (approximately 22° C.).
Each test compound concentration was applied to the cell for seven (7) minutes, at which point the next cumulative concentration was applied.

HCN4 = HCN4 (Homo sapiens (Human), UniProt Q9Y3Q4); test: HCN4 current assay using PatchXpress 7000A; format: cell-based; settings: PatchXpress protocol; read-out: PX HCN4 IC50
HCN4, sequence (Q9Y3Q4 whole entry, species assumed): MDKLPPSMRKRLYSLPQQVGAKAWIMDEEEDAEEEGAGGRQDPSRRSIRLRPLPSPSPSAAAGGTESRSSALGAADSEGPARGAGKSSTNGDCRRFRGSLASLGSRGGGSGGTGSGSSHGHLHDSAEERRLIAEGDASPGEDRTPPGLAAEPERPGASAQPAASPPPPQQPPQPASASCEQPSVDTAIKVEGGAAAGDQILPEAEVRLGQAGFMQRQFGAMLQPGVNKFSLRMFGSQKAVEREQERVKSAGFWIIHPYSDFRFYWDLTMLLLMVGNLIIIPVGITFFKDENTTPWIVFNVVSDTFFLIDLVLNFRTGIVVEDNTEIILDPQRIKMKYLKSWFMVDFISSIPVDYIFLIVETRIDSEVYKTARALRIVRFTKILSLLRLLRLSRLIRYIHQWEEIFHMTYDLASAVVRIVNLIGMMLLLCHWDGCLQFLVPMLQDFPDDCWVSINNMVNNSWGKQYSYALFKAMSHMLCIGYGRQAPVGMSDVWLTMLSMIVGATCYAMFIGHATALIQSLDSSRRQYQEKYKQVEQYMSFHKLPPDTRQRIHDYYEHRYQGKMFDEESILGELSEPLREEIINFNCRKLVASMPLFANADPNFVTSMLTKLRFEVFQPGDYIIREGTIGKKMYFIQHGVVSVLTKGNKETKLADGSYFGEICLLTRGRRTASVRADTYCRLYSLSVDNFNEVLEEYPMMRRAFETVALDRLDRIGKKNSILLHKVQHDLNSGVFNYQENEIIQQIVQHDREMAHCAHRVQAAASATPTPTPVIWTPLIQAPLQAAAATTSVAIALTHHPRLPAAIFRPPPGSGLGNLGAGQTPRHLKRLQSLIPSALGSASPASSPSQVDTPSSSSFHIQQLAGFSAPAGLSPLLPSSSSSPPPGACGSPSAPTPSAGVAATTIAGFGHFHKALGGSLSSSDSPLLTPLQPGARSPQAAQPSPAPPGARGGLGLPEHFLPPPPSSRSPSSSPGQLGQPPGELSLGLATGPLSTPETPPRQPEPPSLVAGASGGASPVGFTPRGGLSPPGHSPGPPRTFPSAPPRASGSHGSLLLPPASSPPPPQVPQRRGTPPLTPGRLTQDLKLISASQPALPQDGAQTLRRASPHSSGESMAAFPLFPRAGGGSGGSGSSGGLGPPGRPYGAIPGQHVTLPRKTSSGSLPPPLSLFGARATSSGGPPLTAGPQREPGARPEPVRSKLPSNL
In short: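 Peak inward current taken at end of a −130 mV pulse, leak-subtracted, and normalized to the control amplitude. Cumulative concentrations applied for 7 min each at room temperature (approximately 22° C.) on an automated patch-clamp platform.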

hNav1.5 = hNav1.5 (Homo sapiens (Human), UniProt Q14524)
hNav1.5, sequence (Q14524 whole entry): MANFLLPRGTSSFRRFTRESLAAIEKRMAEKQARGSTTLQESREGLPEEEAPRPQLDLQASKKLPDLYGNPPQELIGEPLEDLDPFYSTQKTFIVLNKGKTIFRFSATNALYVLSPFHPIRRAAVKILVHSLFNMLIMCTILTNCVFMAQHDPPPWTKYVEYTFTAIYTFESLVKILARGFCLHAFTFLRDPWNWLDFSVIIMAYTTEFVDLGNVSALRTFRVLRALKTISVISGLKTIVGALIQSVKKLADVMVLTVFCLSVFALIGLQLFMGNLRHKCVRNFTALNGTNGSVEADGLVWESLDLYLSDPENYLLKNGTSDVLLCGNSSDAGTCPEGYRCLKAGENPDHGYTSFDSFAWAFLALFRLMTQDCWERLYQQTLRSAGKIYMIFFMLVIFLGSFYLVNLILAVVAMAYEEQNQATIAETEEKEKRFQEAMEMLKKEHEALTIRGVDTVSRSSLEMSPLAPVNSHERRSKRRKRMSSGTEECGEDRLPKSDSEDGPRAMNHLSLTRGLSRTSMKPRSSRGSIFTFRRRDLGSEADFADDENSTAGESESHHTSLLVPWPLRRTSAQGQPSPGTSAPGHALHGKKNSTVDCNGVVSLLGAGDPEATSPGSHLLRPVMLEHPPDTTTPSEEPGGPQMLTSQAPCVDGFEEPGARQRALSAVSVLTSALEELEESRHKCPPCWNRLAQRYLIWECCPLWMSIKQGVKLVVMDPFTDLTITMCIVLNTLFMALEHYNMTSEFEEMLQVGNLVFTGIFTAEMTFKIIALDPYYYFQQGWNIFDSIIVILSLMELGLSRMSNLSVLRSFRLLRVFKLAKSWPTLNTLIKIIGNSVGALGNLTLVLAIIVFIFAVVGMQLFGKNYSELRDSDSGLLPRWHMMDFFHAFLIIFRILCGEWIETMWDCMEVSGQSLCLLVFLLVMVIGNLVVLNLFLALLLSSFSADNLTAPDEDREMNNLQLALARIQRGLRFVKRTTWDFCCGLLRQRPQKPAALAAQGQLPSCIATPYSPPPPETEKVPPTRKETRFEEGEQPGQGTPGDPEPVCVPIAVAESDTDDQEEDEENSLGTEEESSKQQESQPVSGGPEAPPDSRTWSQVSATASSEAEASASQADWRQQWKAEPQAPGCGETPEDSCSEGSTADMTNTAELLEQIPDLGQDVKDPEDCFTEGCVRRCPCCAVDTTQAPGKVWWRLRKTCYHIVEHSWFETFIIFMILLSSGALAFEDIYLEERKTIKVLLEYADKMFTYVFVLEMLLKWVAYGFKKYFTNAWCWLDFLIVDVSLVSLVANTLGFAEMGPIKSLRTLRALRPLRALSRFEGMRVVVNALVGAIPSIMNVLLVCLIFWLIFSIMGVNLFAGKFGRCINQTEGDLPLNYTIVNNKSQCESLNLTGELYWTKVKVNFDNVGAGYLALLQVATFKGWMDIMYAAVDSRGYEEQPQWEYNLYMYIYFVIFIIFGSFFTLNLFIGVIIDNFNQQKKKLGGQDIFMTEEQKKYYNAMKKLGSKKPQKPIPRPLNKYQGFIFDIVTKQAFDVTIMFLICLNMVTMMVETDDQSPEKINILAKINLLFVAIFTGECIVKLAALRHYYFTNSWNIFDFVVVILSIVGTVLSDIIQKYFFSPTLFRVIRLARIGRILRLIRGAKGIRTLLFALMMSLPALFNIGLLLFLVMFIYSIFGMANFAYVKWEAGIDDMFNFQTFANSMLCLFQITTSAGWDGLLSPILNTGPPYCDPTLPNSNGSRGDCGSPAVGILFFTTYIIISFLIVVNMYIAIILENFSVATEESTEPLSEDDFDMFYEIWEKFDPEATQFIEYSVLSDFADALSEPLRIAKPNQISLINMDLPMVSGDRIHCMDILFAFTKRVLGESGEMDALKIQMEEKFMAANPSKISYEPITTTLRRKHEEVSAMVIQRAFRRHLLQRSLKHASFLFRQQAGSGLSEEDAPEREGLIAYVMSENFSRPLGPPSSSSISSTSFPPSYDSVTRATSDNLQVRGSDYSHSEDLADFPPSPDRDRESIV
Method: Solutions for recording Nav1.5 currents were:
Electrophysiological recordings were made from a human embryonic kidney (HEK) cell line stably expressing the full length hNav1.5. Population patch clamp measurements were made in the perforated patch clamp configuration (100 μg ml^−1 amphotericin) at room temperature (approx. 22° C.) using an IonWorks Quattro from Molecular Devices. […] Currents were first measured under control (pre-compound addition) conditions. […] Currents were measured from the depolarising step at the 15th pulse and referenced to the holding current.

MDR1 (P-glycoprotein) = MDR1 (P-glycoprotein) (Homo sapiens (Human), UniProt P08183); test: in vitro; settings: dog, MDCK-MDR1, pH 7.4
Method: Test compounds were added (10 μM, 0.1% DMSO final, n=2) to donor compartments of the Transwell plate assembly in assay buffer (Hanks balanced salt solution supplemented with 25 mM HEPES, adjusted to pH 7.4) for both apical to basolateral (A>B) and basolateral to apical (B>A) measurements. A parallel series of incubations were performed in the presence of the transporter inhibitor elacridar (5 μM) which was added to both compartments in the transwell plate. Incubations were performed at 37° C., with samples removed from both donor and acceptor chambers at T=0 and 1 hour for recovery assessment and compound analysed by mass spectrometry (LC-MS/MS), including an analytical internal standard.
Apparent permeability (Papp) values were determined from the relationship:
Where V is the volume of each Transwell compartment (apical 125 μL, basolateral 600 μL), and concentrations are the relative MS responses for compound (normalized to internal standard) in the donor chamber before incubation and acceptor chamber at the end of the incubation.
Area=area of cells exposed for drug transfer (0.33 cm2).
Efflux ratios (Papp B>A/Papp A>B) were calculated for each compound from the mean Papp values in each direction. […] The efflux ratios were also calculated in the same way from the runs carried out in the presence of the inhibitor. The net flux is the ratio of the efflux in the absence of inhibitor to that in the presence of inhibitor.
Lucifer Yellow (LY) was added to the apical buffer in all wells to assess viability of the cell layer.
Compound recovery from the wells was determined from MS responses (normalized to internal standard) in donor and acceptor chambers at the end of incubation compared to response in the donor chamber pre-incubation.

hERG channel = hERG channel (Homo sapiens (Human), UniProt Q12809); test: hERG assay using IonWorks Quattro; format: cell-based; settings: IonWorks protocol; read-out: IW hERG IC50
hERG channel, sequence (Q12809 whole entry): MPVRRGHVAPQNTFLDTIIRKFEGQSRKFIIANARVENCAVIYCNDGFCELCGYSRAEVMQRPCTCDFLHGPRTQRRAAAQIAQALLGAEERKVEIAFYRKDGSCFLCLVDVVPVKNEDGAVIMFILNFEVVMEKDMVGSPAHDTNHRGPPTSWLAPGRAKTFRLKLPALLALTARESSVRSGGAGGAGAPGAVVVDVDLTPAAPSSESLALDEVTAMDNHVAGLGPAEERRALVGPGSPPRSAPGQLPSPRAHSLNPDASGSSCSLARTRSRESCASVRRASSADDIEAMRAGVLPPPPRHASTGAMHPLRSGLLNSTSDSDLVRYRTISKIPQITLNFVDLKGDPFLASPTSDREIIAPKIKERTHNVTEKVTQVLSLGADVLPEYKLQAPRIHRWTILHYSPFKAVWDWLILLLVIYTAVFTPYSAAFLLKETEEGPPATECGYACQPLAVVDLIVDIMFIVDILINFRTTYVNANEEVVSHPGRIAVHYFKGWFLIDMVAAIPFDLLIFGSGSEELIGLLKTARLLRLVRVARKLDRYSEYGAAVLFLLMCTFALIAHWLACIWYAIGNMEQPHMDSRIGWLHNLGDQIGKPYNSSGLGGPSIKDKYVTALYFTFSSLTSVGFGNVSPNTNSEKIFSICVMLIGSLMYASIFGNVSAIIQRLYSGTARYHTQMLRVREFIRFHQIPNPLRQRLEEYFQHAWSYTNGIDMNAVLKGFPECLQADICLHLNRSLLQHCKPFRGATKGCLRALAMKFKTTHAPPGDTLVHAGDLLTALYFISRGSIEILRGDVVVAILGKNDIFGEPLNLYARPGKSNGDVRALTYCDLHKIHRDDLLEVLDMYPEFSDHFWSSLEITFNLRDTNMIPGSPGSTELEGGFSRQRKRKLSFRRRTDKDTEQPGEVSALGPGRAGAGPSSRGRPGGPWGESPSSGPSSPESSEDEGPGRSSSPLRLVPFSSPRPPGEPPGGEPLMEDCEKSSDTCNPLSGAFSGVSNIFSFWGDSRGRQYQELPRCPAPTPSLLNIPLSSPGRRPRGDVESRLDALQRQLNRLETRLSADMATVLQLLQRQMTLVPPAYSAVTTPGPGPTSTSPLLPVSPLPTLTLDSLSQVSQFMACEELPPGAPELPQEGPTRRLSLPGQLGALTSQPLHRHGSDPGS
Method: Example 127A, Using IonWorks Quattro
Solutions for recording hERG currents were:
This was followed by a […] step of is to −30 mV to evoke the hERG tail current. This sequence was repeated 5 times at a frequency of 0.25 Hz (see FIG. 3). Currents were measured from the tail step at the 5th pulse and referenced to the holding current. Compounds were then incubated for 6-7 minutes prior to a second measurement of the hERG signal using an identical pulse train.

Row | SMILES | IC50 (HCN2) | IC50 (HCN1) | IC50 (HCN4) | IC50 (hNav1.5) | efflux ratio at 1 h, 10 μM (MDR1 (P-glycoprotein)) | IC50 (hERG channel)
1 | Cc1ccc(F)c(C[C@H](N)c2ccccc2-c2noc3ccccc23)n1 [Example 73, (S)-1-[2-(Benzo[d]isoxazol-3-yl)phenyl]-2-(3-fluoro-6-methylpyridin-2-yl)ethan-1-amine hydrochloride] | 0.4 µM | 0.5 µM | 2.8 µM | – | – | –
2 | N[C@@H](Cc1cccc(-c2cn[nH]c2)n1)c1ccccc1-c1noc2ccccc12 [Example 91, (S)-2-[6-(1H-Pyrazol-4-yl)pyridine-2-yl])-1-[2-(benzo[d]isoxazol-3-yl)phenyl]ethan-1-amine hydrochloride] | 1 µM | – | 9.9 µM | 3.4 µM | 23.1 | 1.8 µM
3 | N[C@@H](Cc1ncccn1)c1ccccc1-c1noc2ccccc12 [Example 56, (S)-1-[2-(Benzo[d]isoxazol-3-yl)phenyl]-2-(pyrimidine-2-yl)ethan-1-amine] | 1.2 µM | – | 30 µM | 7 µM | 2.5 | 14.4 µM
4 | N#Cc1ccc2c(-c3ccccc3[C@@H](N)Cc3cccc(OCCO)n3)noc2c1 [Example 99, (S)-1-[2-(6-Cyanobenzo[d]isoxazol-3-yl)phenyl]-2-[6-(2-hydroxyethoxyl)pyridine-2-yl]ethan-1-amine hydrochloride] | 2.4 µM | – | > 30 µM | 18.5 µM | 78.5 | 2.1 µM
5 | Cc1cccc(C[C@H](N)c2ccccc2-c2noc3ccccc23)n1 [Example 114, (S)-1-[2-(Benzo[d]isoxazol-3-yl)phenyl]-2-(6-methylpyridine-2-yl)ethan-1-amine hydrochloride] | 0.62 µM | 4.5 µM | 9 µM | – | – | –
6 | N[C@@H](Cc1cccc(CCO)n1)c1ccccc1-c1noc2ccccc12 [Example 100, (S)-1-[2-(Benzo[d]isoxazol-3-yl)phenyl]-2-[6-(2-hydroxyethyl)pyridine-2-yl]ethan-1-amine hydrochloride] | 2.3 µM | – | > 30 µM | 2.8 µM | 8.7 | 12.8 µM
7 | N[C@@H](Cc1ncccc1F)c1ccccc1-c1noc2ccccc12 [Example 63, (S)-1-[2-(Benzo[d]isoxazol-3-yl)phenyl]-2-(3-fluoropyridin-2-yl)ethan-1-amine hydrochloride] | 0.5 µM | 8 µM | > 30 µM | – | – | –
8 | N#Cc1ccc2c(-c3ccccc3[C@@H](N)Cc3cccc(C#N)n3)noc2c1 [Example 95, (S)-1-[2-(6-Cyanobenzo[d]isoxazol-3-yl)phenyl]-2-(6-cyanopyridine-2-yl)ethan-1-amine] | 1.4 µM | – | > 30 µM | > 33 µM | 4.5 | 2.9 µM
9 | Cc1ccc(-c2noc3ccccc23)c([C@@H](N)Cc2ccccn2)c1 [Example 36, (S)-1-[2-(Benzo[d]isoxazol-3-yl)-5-methylphenyl]-2-(pyridine-2-yl)ethan-1-amine hydrochloride] | 1.2 µM | – | > 30 µM | 5.6 µM | 0.8 | 5 µM
10 | N#Cc1ccc(F)c(C[C@H](N)c2ccccc2-c2noc3ccccc23)n1 [Example 71, (S)-1-[2-(Benzo[d]isoxazol-3-yl)phenyl]-2-(6-cyano-3-fluoropyridin-2-yl)ethan-1-amine formate] | 0.5 µM | 4.4 µM | 3.5 µM | – | – | –
11 | N#Cc1ccc2c(-c3ccccc3[C@@H](N)Cc3ccccn3)noc2c1 [Example 29, (S)-1-[2-(6-Cyanobenzo[d]isoxazol-3-yl)phenyl]-2-(pyridine-2-yl)ethan-1-amine] | 4.3 µM | 8.9 µM | > 30 µM | – | – | –
12 | N#Cc1nc(C[C@H](N)c2ccccc2-c2noc3ccccc23)ccc1F [Example 6, (S)-1-[2-(Benzo[d]isoxazol-3-yl)phenyl]-2-(6-cyano-5-fluoropyridine-2-yl)ethan-1-amine hydrochloride] | 0.39 µM | 1.8 µM | 8.1 µM | – | – | –
13 | N[C@@H](Cc1ccccn1)c1c(F)cccc1-c1noc2ccccc12 [Example 111, (S)-1-[2-(Benzo[d]isoxazol-3-yl)-6-fluorophenyl]-2-(pyridin-2-yl)ethan-1-amine hydrochloride] | 1.8 µM | – | > 30 µM | 27.9 µM | 1 | 7.4 µM
14 | N[C@@H](Cc1ccccn1)c1ccccc1-c1noc2cc(CO)ccc12 [Example 30, (S)-1-[2-(6-Hyroxymethylbenzo[d]isoxazol-3-yl)phenyl]-2-(pyridine-2-yl)ethan-1-amine hydrochloride] | 3 µM | 3 µM | 12.8 µM | – | – | –
15 | Cc1cccc(-c2noc3ccccc23)c1[C@@H](N)Cc1ccccn1 [Example 84, (S)-1-[2-(Benzo[d]isoxazol-3-yl)-6-methylphenyl]-2-(pyridine-2-yl)ethan-1-amine hydrochloride] | 0.9 µM | – | 27 µM | 5.7 µM | 0.8 | 3 µM
16 | CN(C)C(=O)c1cccc(C[C@H](N)c2ccccc2-c2noc3ccccc23)n1 [Example 89, (S)-6-{2-Amino-2-[2-(Benzo[d]isoxazol-3-yl)phenyl]ethyl-N,N-dimethylpyridine-2-carboxamide hydrochloride] | 3.1 µM | – | > 30 µM | 5.8 µM | 24.6 | 19.1 µM
17 | COCc1ccc2c(-c3ccccc3[C@@H](N)Cc3ccccn3)noc2c1 [Example 39, (S)-1-[2-(6-Methoxymethylbenzo[d]isoxazol-3-yl)phenyl]-2-(pyridine-2-yl)ethan-1-amine] | 4 µM | – | > 30 µM | 27.3 µM | 2.7 | 7.6 µM
18 | Cc1ccc2c(-c3ccccc3[C@@H](N)Cc3ccccn3)noc2c1 [Example 33, (S)-1-[2-(6-Methylbenzo[d]isoxazol-3-yl)phenyl]-2-(pyridine-2-yl)ethan-1-amine] | 1.7 µM | – | > 30 µM | 8.8 µM | – | 4.4 µM
19 | N[C@@H](Cc1cccc(N2CCCC2)n1)c1ccccc1-c1noc2ccccc12 [Example 119, (S)-1-[2-(Benzo[d]isoxazol-3-yl)phenyl]-2-[6-(pyrrolidin-1-yl)pyridine-2-yl]ethan-1-amine hydrochloride] | 0.8 µM | – | 2.1 µM | 3.3 µM | – | 1.3 µM
20 | CC[C@@H](c1ccccn1)[C@H](N)c1ccccc1-c1noc2ccccc12 [Example 46, (1S,2R)-1-[2-(benzo[d]isoxazol-3-yl)phenyl]-2-(pyridin-2-yl)butan-1-amine hydrochloride] | 3 µM | – | > 30 µM | 1.3 µM | – | 8.2 µM
21 | N[C@@H](Cc1cccc(C(F)(F)F)n1)c1ccccc1-c1noc2ccccc12 [Example 62, (S)-1-[2-(Benzo[d]isoxazol-3-yl)phenyl]-2-(6-trifluoromethylpyridin-2-yl)ethan-1-amine hydrochloride] | 0.7 µM | – | 19.2 µM | 3.8 µM | – | 3.2 µM
22 | CNc1cccc(C[C@H](N)c2ccccc2-c2noc3cc(C#N)ccc23)n1 [Example 97, (S)-1-[2-(6-Cyanobenzo[d]isoxazol-3-yl)phenyl]-2-(6-methylaminopyridine-2-yl)ethan-1-amine dihydrochloride] | 2.6 µM | – | 13.3 µM | 8.4 µM | 12.2 | 0.54 µM
23 | N[C@@H](Cc1ccccn1)c1ccccc1-c1noc2ccccc12 [Example 42, (S)-1-[2-(Benzo[d]isoxazol-3-yl)phenyl]-2-(pyridine-2-yl)ethan-1-amine hydrochloride] | 1.1 µM | – | > 30 µM | 6.9 µM | 1.5 | 3.8 µM
24 | Cc1cccc(C[C@H](N)c2ccccc2-c2nn(C)c3ccccc23)n1 [Example 61, (S)-1-[2-(1-Methyl-1H-indazole-3-yl)phenyl]-2-(6-methylpyridine-2-yl)ethan-1-amine hydrochloride] | 3.5 µM | – | > 30 µM | 6.7 µM | – | 0.46 µM
25 | COCCNc1cccc(C[C@H](N)c2ccccc2-c2noc3ccccc23)n1 [Example 52, (S)-6-{2-Amino-2-[2-(benzo[d]isoxazol-3-yl)phenyl]ethyl}-N-(2-methoxyethyl)pyridin-2-amine hydrochloride] | 1.6 µM | – | 6 µM | 1.6 µM | – | 1.2 µM
